Like-named read-outs stand apart in the source and are kept apart here.
Columns and labels:
[1] = tested on: winter wheat leaf segments; test: Senescence bioassay: retention of chlorophyll in excised winter wheat leaf tips; type: in vivo, Triticum aestivum cv. Hereward; details: for activity (%) [10^−4 mol · l^−1 BAP = 100%]: chlorophyll retention at concentration with highest activity, 10^−4 M BAP = 100%
Protocol: Seeds of winter wheat, Triticum aestivum cv. Hereward, were washed under running water for 24 hours and then sown on vermiculite soaked with Knop's solution. They were placed in a growth chamber at 25° C. with a 16/8 h light/dark period at 50 μmol·m^−2·s^−1. After 7 days, the first leaf was fully developed and the second leaf had started to grow. A tip section of the first leaf, approximately 35 mm long, was removed from 5 seedlings and trimmed slightly to a combined weight of 100 mg. The basal ends of the five leaf tips were placed in the wells of a microtiter polystyrene plate containing 150 μl of each tested compound solution. The entire plate was inserted into a plastic box lined with paper tissues soaked in distilled water to prevent leaf sections from drying out. After 96 h incubation in the dark at 25° C., the leaves were removed and chlorophyll extracted by heating at 80° C. for 10 min in 5 ml of 80% ethanol (v/v). The sample volume was then restored to 5 ml by the addition of 80% ethanol (v/v). The absorbance of the extract was recorded at 665 nm. In addition, chlorophyll extracts from fresh leaves and leaf tips incubated in deionised water were measured. […] Relative activity of the compound at this concentration was calculated (Tab. 3). The activity obtained for 10^−4 M 6-benzylaminopurine (BAP) was postulated as 100%. The values shown are means of five replicates and the whole experiment was repeated twice. The tested cytokinin bases were dissolved in dimethylsulfoxide (DMSO) and the solution brought up to 10^−3 M with distilled water. Cytokinin mesylate salts which are more water-soluble (BAP mesylate, meta-topolin mesylate and kinetin mesylate) could be directly dissolved to form a 10^−3 M solution in distilled water.

rose explants = test: In vitro and post vitro multiplication and rooting of rose; type: in vivo, Rosa multiflora
Protocol: The aim of this experiment was to test whether the new compounds are of practical use in tissue culture practice. The multiplication rate was investigated and the post vitro effects on rooting were examined Rosa hybrida (pot rose cultivar) was cultured in 350 ml vessels with a screw on polycarbonate lid. Each culture vessel contained 100 ml autoclaved medium (120° C., 20 min). The cultures were maintained at 23±2° C. under a 16 h photoperiod at 40 μM·m^−2 s^−1 PAR. The basal medium (BMR) contained Murashige and Skoog (1962) macroelements, microelements and vitamins, 95 μM NaFeEDTA, 555 μM myo-inositol, 111 mM sucrose, 1.332 mM glycine, 684 μM L-glutamine and 7 g/l agar. This medium was supplemented with 10 μM BAP, mT, or 3MeOBAP, or the corresponding mesylate salts. The control medium didn't contain any cytokinin After a culture period of 8 weeks, the number of induced shoots per explant was determined, as well as root number/explant and total root length/explant. The roots were removed and the explants (shoot clusters) were planted in unfertilised peat. After four weeks of acclimatising in a fog unit, root number and root length was determined. As expected, a cytokinin free medium yielded almost no new shoots. The original shoot explant grew out as a good quality single shoot that rooted very well. […] Explants growing on cytokininin mesylates were characterized by a high multiplication index (a large number of new shoots) and were more rooted in comparison with free bases. The use of cytokinin mesylates led to an increase in all monitored parameters in plant culture compared to free cytokinin bases.

[2] = tested on: cytokinin-dependent tobacco callus; test: Tobacco callus biotest (stimulation of plant cell division); type: cell-based, Nicotiana tabacum L. cv. Wisconsin 38; details: for activity (%) [10^−5 mol · l^−1 BAP = 100%]: callus growth at concentration with highest activity, 10^−5 M BAP = 100%
Protocol: Stimulation effect of the cytokinin mesylates was tested in tobacco callus biotest using cytokinin dependent tobacco callus. Cytokinin-dependent tobacco callus Nicotiana tabacum L. cv. […] Subcultivation was carried out every three weeks. Fourteen days before the bioassay, the callus tissue was transferred to the media without BAP. Biological activity was determined from the increase in fresh callus weight after four weeks of cultivation. Five replicates were prepared for each cytokinin concentration and the entire test was repeated twice. […] Relative activity of the compound at this concentration was calculated (Tab. 15). The activity obtained for 10^−5 M 6-benzylaminopurine (BAP) was postulated as 100%. The cytokinin bases to be tested were dissolved in dimethylsulfoxide (DMSO) and the solution brought up to 10^−3 M with distilled water. The mesylate salts were dissolved directly in distilled water.

[3] = Aqueous solubility: concentration of saturated solution by HPLC; type: physicochemical; details: thermodynamic from solid; saturated solution in water, cytokinin mesylate; read-out: c of CK mesylate
Protocol: Aqueous solubility was measured using the following protocol. Supersaturated solution of meta-topolin mesylate salt was prepared. The solutions were filtered off from visible undissolved particles of the salt to obtain homogenic saturated solution. Saturated solution was diluted 1:10 000 and measured using HPLC Alliance Waters 2690 with C18 Symmetry column with the diameter 2.1 mm and 150 mm length with a porosity of 5 μm. The sample was dissolved in the mobile phase (MeOH: HCOONH4-1:9). The sample was washed with a methanol gradient (10-90%, 35 min) at pH 4 and a flow rate of 0.3 ml/min. The absorbances of the components were detected in the UV region at 210-400 nm. The peak area of meta-topolin mesylate salt was 595 027. The standard was measured as shown in the Table 9 below, Obtained peak area was compared to area peaks measured at certain concentration and the final concentration of saturated solution was determined
Solubility of other cytokinin (CK) mesylates was also determined by this method and the concentrations of saturated solutions are given below in Table 10: […]

[4] = tested on: K562 (chronic myeloid leukemia); test: In vitro cytotoxicity, Calcein AM assay, K-562; type: cell-based; details: 3-day Calcein-AM assay
Excerpt: (§1) Because toxic compounds adversely affect cell metabolic processes, many standard cytotoxicity assays are based on measuring the rate of metabolism of various artificial substrates. The resulting product is then quantified, for example, by spectrometry. Assays can be easily modified for use in 96-well plates, A microtiter assay based on the quantification of Calcein AM metabolism was used to evaluate the cytotoxicity of cytokinins, for example meta-topolin, ortho-topolin, kinetin, BAP or its mesylate salts, but also a number of other cytokinin mesylate derivatives according to the invention. The test is widely used in drug screening programs and in chemosensitivity testing. In living cells, Calcein AM is enzymatically hydrolyzed and the accumulation of the resulting calcein is manifested by green fluorescence. […] These cells were maintained in standard DMEM or RPMI medium (Sigma, MO, USA) supplemented with heat-inactivated fetal bovine serum (10%) with 2 mM L-glutamine and penicillin-streptomycin (1%) under standard cell culture conditions (37° C., 5% CO2 in a humid environment) and subcultured two or three times a week using a standard trypsinization procedure. Approximately 10,000 cells in 80 μl of medium were seeded in a 96-well microtiter plate. After 12 hours of incubation, the compounds to be tested were added in 20 μl aliquots. Control cultures were treated with DMSO alone. […] After 72 hours of incubation, Calcein AM solution (Molecular Probes) was added to a final concentration of 1 μg/ml and the cells were incubated for another hour.
(§2) Cytoxicity of compounds was tested on panel of cell lines of different histogenetic and species origin.

[5] = tested on: MCF-7 (breast adenocarcinoma); test: In vitro cytotoxicity, Calcein AM assay, MCF7; type: cell-based; details: 3-day Calcein-AM assay
Excerpt: as §1, §2

skin fibroblasts BJ = test: Cytotoxicity for non-cancer cells, resazurine reduction assay, BJ
Protocol: (§3) It is used for viability testing of both bacterial and eukaryotic cells. […] Cultivation medium was DMEM with 10% FBS. Before the experiment, the cells were subcultured for 2 weeks. For the cytotoxicity evaluation, the cells were trypsinized and pipetted into 96 well plates (5000 cells per well in 80 microliters). After 24 hours, 5× concentrated solutions of the tested compounds in the medium were added. […] IC50 values were calculated from dose response curves using drc library for R programming environment.

keratinocytes HaCaT = test: Cytotoxicity for non-cancer cells, resazurine reduction assay, HaCaT
Protocol: as §3

[6] = tested on: retinal epitelium cells ARPE-19; test: Cytotoxicity for non-cancer cells, resazurine reduction assay, ARPE-19
Protocol: as §3

[7] = tested on: CEM (T-lymphoblastic leukemia); test: In vitro cytotoxicity, Calcein AM assay, CEM; type: cell-based; details: 3-day Calcein-AM assay
Excerpt: as §1, §2

[8] = tested on: HL-60 (promyelocytic, leukemia); test: In vitro cytotoxicity, Calcein AM assay, HL60; type: cell-based; details: 3-day Calcein-AM assay
Excerpt: as §1, §2

[9] = Ex vitro, after four weeks of acclimatising in peat
[10] = In vitro, 10 μM cytokinin, 8 weeks
[11] = resazurin, 72 hour treatment, HaCaT
[12] = resazurin, 72 hour treatment, ARPE-19
[13] = resazurin, 72 hour treatment, BJ

Compound | activity (%) [10^−5 mol · l^−1 BAP = 100%] [2] | solubility thermodynamic [3] | activity (%) [10^−4 mol · l^−1 BAP = 100%] [1] | Cytotoxicity for Fibroblasts (GI20) BJ (skin fibroblasts BJ; human, 72 h) | Cytotoxicity for Fibroblasts (GI20) HaCaT (keratinocytes HaCaT; [11]) | Cytotoxicity for Fibroblasts (GI20) ARPE-19 [6, 12] | IC50 [5] | IC50 [7] | Cytotoxicity for Fibroblasts (GI20) BJ (skin fibroblasts BJ; [13]) | IC50 [8] | also measured
COc1cccc(CNc2ncnc3nc[nH]c23)c1.CS(=O)(=O)O [3MeOBAP mesylate, 6-(3-methoxybenzylamino)purine mesylate] | 83% | 47.5 mM | – | – | – | – | – | – | – | – | activity (%) [10^−4 mol · l^−1 BAP = 100%] ([1]; listed as 3-MeoBAP mesylate, mesylate): 125%; activity (%) [10^−4 mol · l^−1 BAP = 100%] ([1]; mesylate): 184%; Number of roots per plant (rose explants; [9]): 1.9; Overall length of plant (cm) (rose explants; [9]): 4.5 cm; Number of new shoots per explant (rose explants; [10]): 4.5; Number of roots per explant (rose explants; [10]): 0.0; Overall length of explant (cm) (rose explants; [10]): 0.0 cm; number of flowers per explant (rose explants; [10]): 0.02
CS(=O)(=O)O.c1coc(CNc2ncnc3nc[nH]c23)c1 [Kinetin mesylate, 6-furfurylaminopurine mesylate] | – | 92.6 mM | 110.9% | >100 µM | >100 µM | >100 μM | – | – | – | – | IC50 ([4]; Homo sapiens, K562, 72 h): > 167 µM; IC50 ([5]; Homo sapiens, MCF7, 72 h): > 167 µM; IC50 ([7]; 72 h): > 167 µM
CC(C)=CCNc1ncnc2[nH]cnc12.CS(=O)(=O)O [iP mesylate, N-3-(Methylbut-2-En-1-Yl)-9H-Purin-6-Amin Methanesulphonate] | 95% | – | 95% | – | – | – | > 167 µM | 128 µM | – | – | concentration with highest activity ([1]; chlorophyll retention, excised wheat leaf tips, 96 h dark): 10^−4 mol · l^−1; IC50 [4]: 162 µM; concentration with highest activity ([2]; tobacco callus fresh weight increase, four weeks): 10^−6 mol · l^−1; Cytotoxicity for Fibroblasts (GI20) BJ (skin fibroblasts BJ): 149.3 µM; Cytotoxicity for Fibroblasts (GI20) HaCaT (keratinocytes HaCaT): >100 µM; Cytotoxicity for Fibroblasts (GI20) ARPE-19 [6]: >100 μM
CS(=O)(=O)O.Oc1ccccc1CNc1ncnc2nc[nH]c12 [oT mesylate, 6-(2-hydroxybenzylamino)purine mesylate] | 87% | 82.3 mM | 69% | >100 µM | >100 µM | >100 μM | – | – | – | – | IC50 ([7]; mesylate): 89.4 µM
C/C(=C\CNc1ncnc2[nH]cnc12)CO.CS(=O)(=O)O [tZ mesylate, (E)-4-(9H-Purin-6-Ylamino)-2-Methybut-2-En-1-ol)Methanesulphonate] | 111% | – | 114% | – | >100 µM | >100 μM | > 167 µM | > 167 µM | >100 µM | > 167 µM | –
C/C(=C\CNc1ncnc2nc[nH]c12)CO [trans-zeatin (tZ), trans-zeatin] | 109% | – | 110% | – | >100 µM | >100 μM | > 167 µM | > 167 µM | >100 µM | > 167 µM | –
